Consider 18 molecules from patent US10266495B2, “Phenyl quinolinone derivatives as mutant-isocitrate dehydrogenase inhibitors” (FORMA TM2, Inc., priority 2014, dated 2019).

For assay [1], the target named is IDH1-R132C recombinant protein (Homo sapiens, UniProt O75874, R132C). In words: IDH1-R132C enzymatic assay (NADPH consumption, diaphorase/resazurin readout). Format: biochemical. The conditions noted are these: read-out: Enzyme IDH1 R132C IC50 Range. The protocol: Assays were performed in a 384-well black plate. An aliquot of 250 nL of compound was incubated with 10 μL of 30 nM IDH1-R132H or 10 nM IDH1-R132C recombinant protein in assay buffer (50 mM Tris pH=7.5, 150 mM NaCl, 5 mM MgCl2, 0.1% (w/v) Bovine Serum Albumin, and 0.01% Triton X-100) in each well at 25° C. for 15 minutes. After the plate was centrifuged briefly, an aliquot of 10 μL of 2 mM α-ketoglutarate and 20 μM NADPH solution prepared in assay buffer was then added to each well and the reaction was maintained at 25° C. for 45 minutes. An aliquot of 10 μL of diaphorase solution (0.15 U/mL diaphorase and 30 μM Resazurin in assay buffer) was added to each well. […] The IC50 of a given compound was calculated by fitting the dose response curve of inhibition of NADPH consumption at a given concentration with the four parameter logistic equation.

The target in assay [2] is IDH1-R132H recombinant protein (Homo sapiens, UniProt O75874, R132H). The assay can be described thus: IDH1-R132H enzymatic assay (NADPH consumption, diaphorase/resazurin readout). It counts as biochemical. The conditions noted are these: read-out: Enzyme IDH1 R132H IC50 Range. A digest of the protocol:
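Compound was preincubated 15 min at 25 °C with recombinant IDH1-R132H (30 nM) or IDH1-R132C (10 nM) enzyme solution in 50 mM Tris pH 7.5, 150 mM NaCl, 5 mM MgCl2, 0.1% BSA and 0.01% Triton X-100. A solution of 2 mM α-ketoglutarate and 20 μM NADPH was then added for 45 min at 25 °C. Remaining NADPH was read by diaphorase/resazurin, and IC50 came from a four-parameter logistic fit of NADPH-consumption inhibition.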
For orientation: The colour change of resazurin is a common sign of viable cells or microbes.

Assay [3] has as its system HCT116 isogenic IDH1-R132C mutant cells. In words: Cellular 2-HG assay using HCT116 mutant IDH1 cells (R132C). Format: cell-based. The following applies: Homo sapiens, HCT-116; cellular 2-HG inhibition, 24 hours, RapidFire mass spectrometry; read-out: HCT116 IDH1 R132C IC50 Range.
For assay [4], the system named is HCT116 isogenic IDH1-R132H mutant cells. In words: Cellular 2-HG assay using HCT116 mutant IDH1 cells (R132H). It counts as cell-based. The conditions noted are these: Homo sapiens, HCT-116; cellular 2-HG inhibition, 24 hours, RapidFire mass spectrometry; read-out: HCT116 IDH1 R132H IC50 Range.

Sequence of IDH1-R132H recombinant protein (O75874 whole entry R132H): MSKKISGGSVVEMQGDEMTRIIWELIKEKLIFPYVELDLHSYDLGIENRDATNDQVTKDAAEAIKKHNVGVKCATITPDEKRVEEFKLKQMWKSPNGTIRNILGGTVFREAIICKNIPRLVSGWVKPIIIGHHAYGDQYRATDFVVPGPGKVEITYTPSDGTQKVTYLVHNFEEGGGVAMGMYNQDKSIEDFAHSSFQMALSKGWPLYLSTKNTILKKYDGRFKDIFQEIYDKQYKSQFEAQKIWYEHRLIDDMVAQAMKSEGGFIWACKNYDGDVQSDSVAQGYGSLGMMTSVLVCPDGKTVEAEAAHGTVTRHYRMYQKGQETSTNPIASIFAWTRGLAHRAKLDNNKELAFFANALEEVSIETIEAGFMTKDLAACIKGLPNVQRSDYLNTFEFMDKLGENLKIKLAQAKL
Sequence of IDH1-R132C recombinant protein (O75874 whole entry R132C): as the sequence (O75874 whole entry R132H) above, with H132C counted along it

As a reminder, the IC50 is the concentration that inhibits the measured activity by half. For `COc1cc(N[C@@H](C)c2cc3cc(Cl)ccc3[nH]c2=O)ccc1C#N` [Compound I-2, 4-{[(1S)-1-(6-chloro-2-oxo-1,2-dihydroquinolin-3-yl)ethyl]amino}-2-methoxybenzonitrile], the IC50 is 100 to 1000 nM in assay [1], 10 to 100 nM in assay [2], 100 to 1000 nM in assay [3] and less than 10 nM in assay [4].
For `COc1cc(NCc2cc3cc(Cl)c(OCc4ccccc4)cc3[nH]c2=O)ccc1C#N` [Compound I-71, 4-({[7-(benzyloxy)-6-chloro-2-oxo-1,2-dihydroquinolin-3-yl]methyl}amino)-2-methoxybenzonitrile], the IC50 in assay [1] is greater than 1000 nM; in assay [2] it was 10 to 100 nM.
The corresponding values for `COc1cc(NCc2cc3cc(Cl)c(OCCN4CCN(S(C)(=O)=O)CC4)cc3[nH]c2=O)ccc1C#N` [Compound I-64, 4-[({6-chloro-7-[2-(4-methanesulfonylpiperazin-1-yl)ethoxy]-2-oxo-1,2-dihydroquinolin-3-yl}methyl)amino]-2-methoxybenzonitrile] are 100 to 1000 nM and 10 to 100 nM.
`COc1cc(NCc2cc3cc(Cl)c(OCC4CCCCN4C)cc3[nH]c2=O)ccc1C#N` (stereo not shown) [Compound I-72, 4-[({6-chloro-7-[(1-methylpiperidin-2-yl)methoxy]-2-oxo-1,2-dihydroquinolin-3-yl}methyl)amino]-2-methoxybenzonitrile]: the results for the IC50 in assay [1] and in assay [2] were greater than 1000 nM and 10 to 100 nM, respectively.
As for `COc1cc(NCc2cc3cc(Cl)c(OCCN4CCCC4)cc3[nH]c2=O)ccc1C#N` [Compound I-85, 4-[({6-chloro-2-oxo-7-[2-(pyrrolidin-1-yl)ethoxy]-1,2-dihydroquinolin-3-yl}methyl)amino]-2-methoxybenzonitrile], the figures for the IC50 in assay [1] and in assay [2] were greater than 1000 nM and 100 to 1000 nM, respectively.
For the molecule `COc1cc(NCc2cc3cc(Cl)c(OCC(=O)N(C)C)cc3[nH]c2=O)ccc1C#N` [Compound I-67, 2-[(6-chloro-3-{[(4-cyano-3-methoxyphenyl)amino]methyl}-2-oxo-1,2-dihydroquinolin-7-yl)oxy]-N,N-dimethylacetamide], the results for the IC50 in assay [1] and in assay [2] were greater than 1000 nM and 10 to 100 nM, respectively.
The corresponding values for `COc1cc(NCc2cc3cc(Cl)c(OCc4cnccn4)cc3[nH]c2=O)ccc1C#N` [Compound I-76, 4-({[6-chloro-2-oxo-7-(pyrazin-2-ylmethoxy)-1,2-dihydroquinolin-3-yl]methyl}amino)-2-methoxybenzonitrile] are greater than 1000 nM and 10 to 100 nM.
In the case of `COc1cc(NCc2cc3cc(Cl)c(OCc4cc(C)n(C)n4)cc3[nH]c2=O)ccc1C#N` [Compound I-70, 4-[({6-chloro-7-[(1,5-dimethyl-1H-pyrazol-3-yl)methoxy]-2-oxo-1,2-dihydroquinolin-3-yl}methyl)amino]-2-methoxybenzonitrile], the IC50 in assay [1] fell in the range of 100 to 1000 nM; in assay [2], 10 to 100 nM.
The corresponding values for `COc1cc(NC(C)c2cc3cc(Cl)c(OCc4ccccn4)cc3[nH]c2=O)ccc1C#N` (stereo not shown) [Compound I-5, 4-({1-[6-chloro-2-oxo-7-(pyridin-2-ylmethoxy)-1,2-dihydroquinolin-3-yl]ethyl}amino)-2-methoxybenzonitrile] are 100 to 1000 nM and 10 to 100 nM.
As to `COc1cc(NCc2cc3cc(Cl)c(OCCn4ccnc4C)cc3[nH]c2=O)ccc1C#N` [Compound I-90, 4-[({6-chloro-7-[2-(2-methyl-1H-imidazol-1-yl)ethoxy]-2-oxo-1,2-dihydroquinolin-3-yl}methyl)amino]-2-methoxybenzonitrile], the IC50 is 100 to 1000 nM in assay [1] and 10 to 100 nM in assay [2].
The corresponding values for `COc1cc(NCc2cc3ccccc3[nH]c2=O)ccc1C#N` [Compound I-47, 2-methoxy-4-{[(2-oxo-1,2-dihydroquinolin-3-yl)methyl]amino}benzonitrile] are greater than 1000 nM and 100 to 1000 nM.
Regarding `COc1cc(NCc2cc3cc(Cl)c(OCCn4ccnc4)cc3[nH]c2=O)ccc1C#N` [Compound I-89, 4-[({6-chloro-7-[2-(1H-imidazol-1-yl)ethoxy]-2-oxo-1,2-dihydroquinolin-3-yl}methyl)amino]-2-methoxybenzonitrile], the results for the IC50 in assay [1] and in assay [2] were greater than 1000 nM and 10 to 100 nM, respectively.
Consider `COc1cc(NCc2cc3cc(Cl)c(OCCn4nc(C)cc4C)cc3[nH]c2=O)ccc1C#N` [Compound I-92, 4-[({6-chloro-7-[2-(3,5-dimethyl-1H-pyrazol-1-yl)ethoxy]-2-oxo-1,2-dihydroquinolin-3-yl}methyl)amino]-2-methoxybenzonitrile], for which the results for the IC50 in assay [1] and in assay [2] were greater than 1000 nM and 100 to 1000 nM, respectively.
`COc1cc(NCc2cc3cc(Cl)c(OCC(=O)N4CCOCC4)cc3[nH]c2=O)ccc1C#N` [Compound I-69, 4-[({6-chloro-7-[2-(morpholin-4-yl)-2-oxoethoxy]-2-oxo-1,2-dihydroquinolin-3-yl}methyl)amino]-2-methoxybenzonitrile]: the values for the IC50 in assay [1] and in assay [2] were greater than 1000 nM and 10 to 100 nM, respectively.
Taken in the same sequence, the figures for `COc1cc(NCc2cc3cc(Cl)c(OCCCN4CCCCC4)cc3[nH]c2=O)ccc1C#N` [Compound I-84, 4-[({6-chloro-2-oxo-7-[3-(piperidin-1-yl)propoxy]-1,2-dihydroquinolin-3-yl}methyl)amino]-2-methoxybenzonitrile] were greater than 1000 nM and 100 to 1000 nM.
Turning to `COc1cc(NCc2cc3ccc(O)cc3[nH]c2=O)ccc1C#N` [Compound I-30, 4-{[(7-hydroxy-2-oxo-1,2-dihydroquinolin-3-yl)methyl]amino}-2-methoxybenzonitrile], the IC50 is greater than 1000 nM in assay [1] and 100 to 1000 nM in assay [2].
The corresponding values for `COc1cc2[nH]c(=O)c(CNc3ccc(C#N)c(OC)c3)cc2cc1F` [Compound I-26, 4-{[(6-fluoro-7-methoxy-2-oxo-1,2-dihydroquinolin-3-yl)methyl]amino}-2-methoxybenzonitrile] are greater than 1000 nM and 10 to 100 nM.
Consider `COc1cc(NCc2cc3cc(Cl)ccc3[nH]c2=O)ccc1C#N` [Compound I-7, 4-{[(6-chloro-2-oxo-1,2-dihydroquinolin-3-yl)methyl]amino}-2-methoxybenzonitrile], for which the IC50 is greater than 1000 nM in assay [1], 100 to 1000 nM in assay [2], greater than 1000 nM in assay [3] and 100 to 1000 nM in assay [4].
